Results reported in ChEMBL document CHEMBL3832761, “MMV Pathogen Box Bioactivity Data” (2017).
Converted amounts (≈) assume the structure as drawn.

Experiments:
Assay type in all cases: functional
[1] = system: Mycobacterium tuberculosis; assay: AntiMycobacterium tuberculosis activity Non-Replicating form: Average MIC90 (uM)
[2] = system: Mycobacterium tuberculosis; assay: AntiMycobacterium tuberculosis activity 1-week GAST/Fe MIC (uM); conditions: 168 h
[3] = system: Mycobacterium tuberculosis; assay: AntiMycobacterium tuberculosis activity 1-week 7H9/ADC/Tw MIC (uM); conditions: 168 h
[4] = system: Mycobacterium tuberculosis; assay: AntiMycobacterium tuberculosis activity 2-week GAST/Fe MIC (uM); conditions: 336 h
[5] = system: Mycobacterium tuberculosis; assay: AntiMycobacterium tuberculosis activity 2-week Alamar Blue 7H9/cholesterol/BSA/Tx MIC (uM); conditions: 336 h
[6] = system: Mycobacterium tuberculosis; assay: AntiMycobacterium tuberculosis activity 2-week 7H9/ADC/Tw MIC (uM); conditions: 336 h
[7] = system: Mycobacterium tuberculosis; assay: AntiMycobacterium tuberculosis activity 1-week 7H9/DPPC/cholesterol/BSA/Tx MIC (uM); conditions: 168 h
[8] = system: Mycobacterium tuberculosis; assay: AntiMycobacterium tuberculosis activity day 21 in 7H9/2.5mM butyrate/pH6/0.1mM nitrite MIC90 (uM); conditions: 504 h
[9] = system: Mycobacterium tuberculosis; assay: (§1) AntiMycobacterium tuberculosis activity day 10 in 7H9/2.5mM butyrate/pH6/0.1mM nitrite MIC90 (uM); conditions: 240 h
[10] = system: Mycobacterium tuberculosis; assay: AntiMycobacterium tuberculosis activity Replicating form: Average MIC90 (uM)
[11] = system: Mycobacterium tuberculosis; assay: AntiMycobacterium tuberculosis activity 1-week 7H9/glucose/BSA/Tx MIC (uM); conditions: 168 h
[12] = system: Mycobacterium tuberculosis; assay: AntiMycobacterium tuberculosis activity day 21 MIC99 in 7H9/2.5mM butyrate/pH6/0.1mM nitrite MIC99 (uM); conditions: 504 h
[13] = system: Mycobacterium tuberculosis; assay: AntiMycobacterium tuberculosis activity 1-week 7H9/cholesterol/BSA/Tx MIC (uM); conditions: 168 h
[14] = system: Mycobacterium tuberculosis; assay: AntiMycobacterium tuberculosis activity 2-week 7H9/glucose/BSA/Tx MIC (uM); conditions: 336 h
[15] = system: Mycobacterium tuberculosis; assay: AntiMycobacterium tuberculosis activity 2-week 7H9/DPPC/cholesterol/BSA/Tx MIC (uM); conditions: 336 h
[16] = system: Mycobacterium tuberculosis; assay: as §1; conditions: 240 h; remark: listed apart in the source
HepG2 = assay: HepG2 CC50 (uM) Cytotoxicity; conditions: Homo sapiens
[17] = system: Mycobacterium tuberculosis; assay: AntiMycobacterium tuberculosis activity 2-week Alamar Blue 7H9/ADC/Tw MIC (uM); conditions: 336 h

| SMILES | MIC90 [1] [µM] | MIC [2] [µM] | MIC [3] [µM] | MIC [4] [µM] | MIC [5] [µM] | MIC [6] [µM] | MIC [7] [µM] | MIC90 [8] [µM] | MIC90 [9] [µM] | MIC90 [10] [µM] | MIC [11] [µM] | MIC [12] [µM] | MIC [13] [µM] | MIC [14] [µM] | MIC [15] [µM] | MIC90 [16] [µM] | CC50 (HepG2) [µM] | MIC [17] [µM] |
| --- | --- | --- | --- | --- | --- | --- | --- | --- | --- | --- | --- | --- | --- | --- | --- | --- | --- | --- |
| COc1ccc(OC(C)C(=O)Nc2ccc(Cl)cc2C)cc1 (stereo not given) | 12.2 (≈ 3.91 µg/mL) | 2.3 (≈ 0.736 µg/mL) | 4.7 (≈ 1.5 µg/mL) | 2.3 (≈ 0.736 µg/mL) | 12.5 (≈ 4 µg/mL) | 6.25 (≈ 2 µg/mL) | 6.25 (≈ 2 µg/mL) | 25 (≈ 7.99 µg/mL) | 25 (≈ 7.99 µg/mL) | 14.6 (≈ 4.68 µg/mL) | 9.4 (≈ 3.01 µg/mL) | 50 (≈ 16 µg/mL) | 9.4 (≈ 3.01 µg/mL) | 9.4 (≈ 3.01 µg/mL) | 6.25 (≈ 2 µg/mL) | > 50 | > 100 | 6.25 (≈ 2 µg/mL) |
| COc1ccc(C2(C(=O)Nc3ccc(Br)cc3)CCCC2)cc1 | 46.5 (≈ 17.4 µg/mL) | 19 (≈ 7.11 µg/mL) | 19 (≈ 7.11 µg/mL) | 19 (≈ 7.11 µg/mL) | 12.5 (≈ 4.68 µg/mL) | 12.5 (≈ 4.68 µg/mL) | 12.5 (≈ 4.68 µg/mL) | 50 (≈ 18.7 µg/mL) | 50 (≈ 18.7 µg/mL) | 26.5 (≈ 9.93 µg/mL) | 12.5 (≈ 4.68 µg/mL) | 50 (≈ 18.7 µg/mL) | 9.4 (≈ 3.52 µg/mL) | 12.5 (≈ 4.68 µg/mL) | 9.4 (≈ 3.52 µg/mL) | > 50 | > 100 | 12.5 (≈ 4.68 µg/mL) |
| Cn1c(=O)c2c(S(C)(=O)=O)snc2n(C)c1=O | < 0.23 | 4.7 (≈ 1.29 µg/mL) | 19 (≈ 5.23 µg/mL) | 6.25 (≈ 1.72 µg/mL) | 25 (≈ 6.88 µg/mL) | 25 (≈ 6.88 µg/mL) | 19 (≈ 5.23 µg/mL) | 12.5 (≈ 3.44 µg/mL) | 6.25 (≈ 1.72 µg/mL) | 15.4 (≈ 4.24 µg/mL) | 12.5 (≈ 3.44 µg/mL) | 12.5 (≈ 3.44 µg/mL) | 25 (≈ 6.88 µg/mL) | 19 (≈ 5.23 µg/mL) | 37 (≈ 10.2 µg/mL) | 12.5 (≈ 3.44 µg/mL) | 1.1 | 25 (≈ 6.88 µg/mL) |
| CCC(Sc1nc2ccccc2o1)C(=O)Nc1nccs1 (stereo not given) | 1.38 (≈ 0.441 µg/mL) | 37 (≈ 11.8 µg/mL) | 9.4 (≈ 3 µg/mL) | 37 (≈ 11.8 µg/mL) | 12.5 (≈ 3.99 µg/mL) | 9.4 (≈ 3 µg/mL) | 9.4 (≈ 3 µg/mL) | 6.25 (≈ 2 µg/mL) | 6.25 (≈ 2 µg/mL) | 3.08 (≈ 0.984 µg/mL) | 9.4 (≈ 3 µg/mL) | 6.25 (≈ 2 µg/mL) | 12.5 (≈ 3.99 µg/mL) | 12.5 (≈ 3.99 µg/mL) | 12.5 (≈ 3.99 µg/mL) | 12.5 (≈ 3.99 µg/mL) | 13 | 9.4 (≈ 3 µg/mL) |
| CCOc1ccc(OCC(=O)Nc2cc(C)cc(C)c2)cc1 | 65 (≈ 19.5 µg/mL) | 3.13 (≈ 0.937 µg/mL) | ≥ 50 | 4.7 (≈ 1.41 µg/mL) | > 50 | > 50 | 50 (≈ 15 µg/mL) | > 50 | > 50 | 82.3 (≈ 24.6 µg/mL) | 50 (≈ 15 µg/mL) | > 50 | 50 (≈ 15 µg/mL) | > 50 | > 50 | > 50 | > 100 | > 50 |
| Nc1ncnc2c1ncn2[C@@H]1O[C@H](COS(=O)(=O)NC(=O)c2ccccc2O)[C@@H](O)[C@H]1O | > 100 | 0.3 (≈ 0.14 µg/mL) | > 50 | 0.6 (≈ 0.28 µg/mL) | > 50 | > 50 | > 50 | > 50 | > 50 | > 100 | > 50 | > 50 | > 50 | > 50 | > 50 | > 50 | > 100 | 9.4 (≈ 4.38 µg/mL) |
| O=C(Nc1nnc(-c2ccc(Cl)s2)o1)c1ccc(Cl)s1 | 2.76 (≈ 0.956 µg/mL) | 0.78 (≈ 0.27 µg/mL) | 9.4 (≈ 3.25 µg/mL) | 1.2 (≈ 0.415 µg/mL) | 6.25 (≈ 2.16 µg/mL) | 9.4 (≈ 3.25 µg/mL) | 6.25 (≈ 2.16 µg/mL) | 6.25 (≈ 2.16 µg/mL) | 6.5 (≈ 2.25 µg/mL) | 35.2 (≈ 12.2 µg/mL) | 4.7 (≈ 1.63 µg/mL) | > 50 | 3.13 (≈ 1.08 µg/mL) | 6.25 (≈ 2.16 µg/mL) | 12.5 (≈ 4.33 µg/mL) | > 50 | 50.1 | 9.4 (≈ 3.25 µg/mL) |
| O=C(C1CCN(c2nnc(-n3cccc3)s2)CC1)N1CCC(Cc2ccccc2)CC1 | 0.8 (≈ 0.348 µg/mL) | 0.02 (≈ 0.00871 µg/mL) | 0.1 (≈ 0.0436 µg/mL) | 0.02 (≈ 0.00871 µg/mL) | 0.05 (≈ 0.0218 µg/mL) | 0.07 (≈ 0.0305 µg/mL) | 0.02 (≈ 0.00871 µg/mL) | 0.19 (≈ 0.0828 µg/mL) | 0.19 (≈ 0.0828 µg/mL) | 0.94 (≈ 0.409 µg/mL) | 0.1 (≈ 0.0436 µg/mL) | 0.78 (≈ 0.34 µg/mL) | 0.02 (≈ 0.00871 µg/mL) | 0.1 (≈ 0.0436 µg/mL) | 0.04 (≈ 0.0174 µg/mL) | 0.78 (≈ 0.34 µg/mL) | > 100 | 0.07 (≈ 0.0305 µg/mL) |
| CCCCS(=O)(=O)Nc1ccc2cnn(C)c2c1 | 1.39 (≈ 0.372 µg/mL) | 0.3 (≈ 0.0802 µg/mL) | 0.6 (≈ 0.16 µg/mL) | 0.6 (≈ 0.16 µg/mL) | 2.3 (≈ 0.615 µg/mL) | 0.6 (≈ 0.16 µg/mL) | 0.39 (≈ 0.104 µg/mL) | 50 (≈ 13.4 µg/mL) | 12.5 (≈ 3.34 µg/mL) | 0.69 (≈ 0.184 µg/mL) | 0.39 (≈ 0.104 µg/mL) | 50 (≈ 13.4 µg/mL) | 0.6 (≈ 0.16 µg/mL) | 0.78 (≈ 0.209 µg/mL) | 0.6 (≈ 0.16 µg/mL) | > 50 | > 100 | 0.6 (≈ 0.16 µg/mL) |
| CCOC(=O)NC(=O)c1ccsc1NC(=O)c1nc2ccccc2s1 | 0.34 (≈ 0.128 µg/mL) | < 0.02 | 0.2 (≈ 0.0751 µg/mL) | < 0.02 | 0.1 (≈ 0.0375 µg/mL) | 0.15 (≈ 0.0563 µg/mL) | 0.1 (≈ 0.0375 µg/mL) | ≤ 0.04 | ≤ 0.04 | 0.69 (≈ 0.259 µg/mL) | 0.2 (≈ 0.0751 µg/mL) | 0.09 (≈ 0.0338 µg/mL) | 0.05 (≈ 0.0188 µg/mL) | 0.2 (≈ 0.0751 µg/mL) | 0.1 (≈ 0.0375 µg/mL) | 0.19 (≈ 0.0713 µg/mL) | 47 | 0.15 (≈ 0.0563 µg/mL) |
